Data from patent US8088930B2, “Benzimidazole derivatives” (Hoffmann-La Roche Inc., priority 2008, dated 2012).
Like-named read-outs stand apart in the source and are kept apart here.

Target: T1, FXR ligand binding domain (GST-FXR LBD fusion protein, human FXR aa 193-473) (Homo sapiens, UniProt Q96RI1)
T1 construct: fused on or other part: Glutathione-S-transferase (GST) fused N-terminally to the FXR LBD, used to capture the protein on glutathione SPA beads
T1 sequence (Q96RI1 211-486 limits assumed): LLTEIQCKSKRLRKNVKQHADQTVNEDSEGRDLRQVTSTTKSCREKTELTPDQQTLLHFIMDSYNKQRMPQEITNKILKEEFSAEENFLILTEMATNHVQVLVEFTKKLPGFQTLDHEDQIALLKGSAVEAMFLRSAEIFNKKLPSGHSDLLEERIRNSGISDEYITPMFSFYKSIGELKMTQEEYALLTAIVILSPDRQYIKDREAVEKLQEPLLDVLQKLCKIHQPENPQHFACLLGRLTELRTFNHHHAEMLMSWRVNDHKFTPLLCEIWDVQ
Test: Radioligand binding assay (scintillation proximity, radioligand displacement)
Conditions: 40 nM GST-FXR LBD on SPA beads, test compound 6×10^−9 M to 2.5×10^−5 M
Experimental: The following tests were carried out in order to determine the activity of the compounds of formula (I).
To accomplish this, the portions of the sequences encoding the FXR LBD were amplified by polymerase chain reaction (PCR) from a full-length clone by PCR and then subcloned into the plasmid vectors. The final clone was verified by DNA sequence analysis.
The induction, expression, and subsequent purification of GST-LBD fusion protein was performed in E. coli strain BL21(pLysS) cells by standard methods (Current Protocols in Molecular Biology, Wiley Press, ed. Ausubel et al.).
Radioligand Binding Assay
Binding of test substances to the FXR ligand binding domain was assessed in a radioligand displacement assay. The assay was performed in a buffer consisting of 50 mM Hepes, pH 7.4, 10 mM NaCl, 5 mM MgCl2, 0.01% CHAPS. For each reaction well in a 96-well plate, 40 nM of GST-FXR LBD fusion protein was bound to 10 μg glutathione yttrium silicate SPA beads (Pharmacia Amersham) in a final volume of 50 μl by shaking. A radioligand (e.g., 20 nM of 2,N-dicyclohexyl-2-[2-(2,4 dimethoxy-phenyl)-benzoimidazol-1-yl]-acetamide) and test compounds were added, and scintillation proximity counting was performed. All binding assays were performed in 96-well plates and the amount of bound ligand was measured on a Packard TopCount using OptiPlates (Packard).

| SMILES | IC50 (read-out: h-IC50 Binding) [nM] | IC50 (h-IC50 Binding) [nM] |
| --- | --- | --- |
| COc1ccc(-c2nc3cc(F)c(F)cc3n2C(COc2c(F)cc(C(=O)O)cc2F)C2CCCCC2)c(OC)n1 (single isomer, unassigned; (+)) [Example 97, (+)-4-{2-Cyclohexyl-2-[2-(2,6-dimethoxy-pyridin-3-yl)-5,6-difluoro-benzoimidazol-1-yl]-ethoxy}-3,5-difluoro-benzoic acid] | 50 |  |
| COc1ccc(-c2nc3cc(F)c(F)cc3n2C(COc2c(C)cc(-c3nnn[nH]3)cc2C)C2CCCCC2)c(OC)n1 (single isomer, unassigned; (+)) [Example 100, (+)-1-{1-Cyclohexyl-2-[2,6-dimethyl-4-(1H-tetrazol-5-yl)-phenoxy]-ethyl}-2-(2,6-dimethoxy-pyridin-3-yl)-5,6-difluoro-1H-benzoimidazole] | 20 |  |
| O=C(O)c1cc(F)c(OCC(C2CCCCC2)n2c(-c3ccc(Cl)cc3)nc3ccccc32)c(F)c1 (single isomer, unassigned; (+)) [Example 103, (+)-4-{2-[2-(4-Chloro-phenyl)-benzoimidazol-1-yl]-2-cyclohexyl-ethoxy}-3,5-difluoro-benzoic acid] | 100 |  |
| Cc1cc(C(=O)O)cc(C)c1OCC(C1CCCCC1)n1c(-c2ccc(Cl)cc2)nc2ccccc21 (single isomer, unassigned; (+)) [Example 107, (+)-4-{2-[2-(4-Chloro-phenyl)-benzoimidazol-1-yl]-2-cyclohexyl-ethoxy}-3,5-dimethyl-benzoic acid] | 10 |  |
| O=C(O)c1cc(F)c(OCC(C2CCCCC2)n2c(-c3ccc(Cl)cc3)nc3ccccc32)c(Cl)c1 (single isomer, unassigned; (+)) [Example 110, (+)-3-Chloro-4-{2-[2-(4-chloro-phenyl)-benzoimidazol-1-yl]-2-cyclohexyl-ethoxy}-5-fluoro-benzoic acid] | 60 |  |
| Cc1cc(-c2nnn[nH]2)cc(C)c1OCC(C1CCCCC1)n1c(-c2ccc(Cl)cc2)nc2ccccc21 (single isomer, unassigned; (+)) [Example 113, (+)-2-(4-Chloro-phenyl)-1-{1-cyclohexyl-2-[2,6-dimethyl-4-(1H-tetrazol-5-yl)-phenoxy]-ethyl}-1H-benzoimidazole] | 2 |  |
| CC(C)(Oc1c(F)cc(C(=O)O)cc1F)C(C1CCCCC1)n1c(-c2ccc(Cl)cc2)nc2cc(F)c(F)cc21 (single isomer, unassigned; (+)) [Example 116, (+)-4-{2-[2-(4-Chloro-phenyl)-5,6-difluoro-benzoimidazol-1-yl]-2-cyclohexyl-1,1-dimethyl-ethoxy}-3,5-difluoro-benzoic acid] | 2 |  |
| O=C(O)C1(Oc2ccc(OCC(C3CCCCC3)n3c(-c4ccc(Cl)cc4)nc4cc(F)c(F)cc43)cc2)CCC1 (single isomer, unassigned; (+)) [Example 118, (+)-1-(4-{2-[2-(4-Chloro-phenyl)-5,6-difluoro-benzoimidazol-1-yl]-2-cyclohexyl-ethoxy}-phenoxy)-cyclobutanecarboxylic acid] | 310 |  |
| O=C(O)C1(Oc2ccc(OCC(C3CCCCC3)n3c(-c4ccc(Cl)cc4)nc4cc(F)c(F)cc43)cc2)CC1 (single isomer, unassigned; (+)) [Example 122, (+)-1-(4-{2-[2-(4-Chloro-phenyl)-5,6-difluoro-benzoimidazol-1-yl]-2-cyclohexyl-ethoxy}-phenoxy)-cyclopropanecarboxylic acid] | 180 |  |
| Cc1cc(Cl)ccc1-c1nc2cc(F)c(F)cc2n1C(COc1c(F)cc(C(=O)O)cc1F)C1CCCCC1 (single isomer, unassigned; (+)) [Example 126, (+)-4-{2-[2-(4-Chloro-2-methyl-phenyl)-5,6-difluoro-benzoimidazol-1-yl]-2-cyclohexyl-ethoxy}-3,5-difluoro-benzoic acid] | 30 |  |
| O=C(O)c1cc(F)c(OCC(C2CCCCCC2)n2c(-c3ccc(Cl)cc3)nc3cc(F)c(F)cc32)c(F)c1 (single isomer, unassigned; (+)) [Example 133, (+)-4-{2-[2-(4-Chloro-phenyl)-5,6-difluoro-benzoimidazol-1-yl]-2-cycloheptyl-ethoxy}-3,5-difluoro-benzoic acid] | 10 |  |
| O=C(O)c1ccc(CCC(C2CCCCC2)n2c(-c3ccccc3)nc3cc(F)c(F)cc32)cc1 (single isomer, unassigned; (+)) [Example 144, (+)-4-[3-Cyclohexyl-3-(5,6-difluoro-2-phenyl-benzoimidazol-1-yl)-propyl]-benzoic acid] | 200 |  |
| COc1ccc(-c2nc3cc(F)c(F)cc3n2C(CCc2ccc(C(=O)O)cc2)C2CCCCC2)c(OC)n1 (single isomer, unassigned; (+)) [Example 147, (+)-4-{3-Cyclohexyl-3-[2-(2,6-dimethoxy-pyridin-3-yl)-5,6-difluoro-benzoimidazol-1-yl]-propyl}-benzoic acid] | 0.4 |  |
| Fc1cc2nc(-c3ccc(Cl)cc3)n(C(COCC3CCCCC3)C3CCCCC3)c2cc1F (single isomer, unassigned; (-)) [Example 2, (−)-2-(4-Chloro-phenyl)-1-(1-cyclohexyl-2-cyclohexylmethoxy-ethyl)-5,6-difluoro-1H-benzoimidazole] | 60 |  |
| O=C(O)c1ccc(OCC(C2CCCCC2)n2c(-c3ccc(Cl)cc3)nc3cc(F)c(F)cc32)cc1 (single isomer, unassigned; (-)) [Example 6, (−)-4-{2-[2-(4-Chloro-phenyl)-5,6-difluoro-benzoimidazol-1-yl]-2-cyclohexyl-ethoxy}-benzoic acid] | 90 |  |
| O=C(O)c1ccc(OCC(C2CCCCC2)n2c(-c3ccc(Cl)cc3)nc3cc(F)c(F)cc32)c(F)c1 (single isomer, unassigned; (-)) [Example 8, (−)-4-{2-[2-(4-Chloro-phenyl)-5,6-difluoro-benzoimidazol-1-yl]-2-cyclohexyl-ethoxy}-3-fluoro-benzoic acid] |  | 20 |
| Cc1cc(C(=O)O)ccc1OCC(C1CCCCC1)n1c(-c2ccc(Cl)cc2)nc2cc(F)c(F)cc21 (single isomer, unassigned; (-)) [Example 12, (−)-4-{2-[2-(4-Chloro-phenyl)-5,6-difluoro-benzoimidazol-1-yl]-2-cyclohexyl-ethoxy}-3-methyl-benzoic acid] | 50 |  |
| O=C(O)c1ccc(OCC(C2CCCCC2)n2c(-c3ccc(Cl)cc3)nc3cc(F)c(F)cc32)nc1 (single isomer, unassigned; (-)) [Example 21, (−)-6-{2-[2-(4-Chloro-phenyl)-5,6-difluoro-benzoimidazol-1-yl]-2-cyclohexyl-ethoxy}-nicotinic acid] | 600 |  |
| O=C(O)c1cnc(OCC(C2CCCCC2)n2c(-c3ccc(Cl)cc3)nc3cc(F)c(F)cc32)c(Cl)c1 (single isomer, unassigned; (-)) [Example 24, (−)-5-Chloro-6-{2-[2-(4-chloro-phenyl)-5,6-difluoro-benzoimidazol-1-yl]-2-cyclohexyl-ethoxy}-nicotinic acid] | 20 |  |
| O=C(O)c1cnc(OCC(C2CCCCC2)n2c(-c3ccc(Cl)cc3)nc3cc(F)c(F)cc32)c2ccsc12 (single isomer, unassigned; (-)) [Example 28, (−)-4-{2-[2-(4-Chloro-phenyl)-5,6-difluoro-benzoimidazol-1-yl]-2-cyclohexyl-ethoxy}-thieno[3,2-c]pyridine-7-carboxylic acid] | 40 |  |
| O=C(O)c1ccc(OCC(C2CCCCC2)n2c(-c3ccc(Cl)cc3)nc3cc(F)c(F)cc32)c(C(F)(F)F)c1 (single isomer, unassigned; (-)) [Example 41, (−)-4-{2-[2-(4-Chloro-phenyl)-5,6-difluoro-benzoimidazol-1-yl]-2-cyclohexyl-ethoxy}-3-trifluoromethyl-benzoic acid] | 70 |  |
| O=C(O)c1c(F)cc(OCC(C2CCCCC2)n2c(-c3ccc(Cl)cc3)nc3cc(F)c(F)cc32)cc1F (single isomer, unassigned; (-)) [Example 44, (−)-4-{2-[2-(4-Chloro-phenyl)-5,6-difluoro-benzoimidazol-1-yl]-2-cyclohexyl-ethoxy}-2,6-difluoro-benzoic acid] | 400 |  |
| CC(C)(Oc1ccc(OCC(C2CCCCC2)n2c(-c3ccc(Cl)cc3)nc3cc(F)c(F)cc32)nc1)C(=O)O (single isomer, unassigned; (-)) [Example 49, (−)-2-(6-{2-[2-(4-Chloro-phenyl)-5,6-difluoro-benzoimidazol-1-yl]-2-cyclohexyl-ethoxy}-pyridin-3-yloxy)-2-methyl-propionic acid] | 400 |  |
